Where two headings read alike, the source gives them in different places.

Common to all, as to type: cell-based
For test [1], the target named is T1, L-type channels (α1C+α2δ+β1b cDNA subunits) (UniProt P22002).
T1 construct: other: α1C (L-type), 100 nM, 0.03 Hz; other: α1C (L-type), 100 nM, 0.2 Hz; other: α1C (L-type), 0.03 Hz; other: α1C (L-type), 0.2 Hz
Kind of test: Whole cell patch clamp, tonic and frequency dependent block, L-type channels in HEK 293 (Example 5). Here is the method: (§1) N-type calcium channel blocking activity was assayed in human embryonic kidney cells, HEK 293, stably transfected with the rat brain N-type calcium channel subunits (α1B+α2δ+β1b cDNA subunits). Alternatively, N-type calcium channels (α1B+α2δ+β1b cDNA subunits), L-type channels (α1C+α2δ+β1b cDNA subunits) and P/Q-type channels (α1A+α2δ+β1b cDNA subunits) were transiently expressed in HEK 293 cells. Briefly, cells were cultured in Dulbecco's modified eagle medium (DMEM) supplemented with 10% fetal bovine serum, 200 U/ml penicillin and 0.2 mg/ml streptomycin at 37° C. with 5% CO2. At 85% confluency cells were split with 0.25% trypsin/1 mM EDTA and plated at 10% confluency on glass coverslips. At 12 hours the medium was replaced and the cells transiently transfected using a standard calcium phosphate protocol and the appropriate calcium channel cDNAs. Fresh DMEM was supplied and the cells transferred to 28° C./5% CO2. Cells were incubated for 1 to 2 days to whole cell recording.
(§2) Whole cell patch clamp experiments were performed using an Axopatch 200B amplifier (Axon Instruments, Burlingame, Calif.) linked to a personal computer equipped with pCLAMP software. The external and internal recording solutions contained, respectively, 5 mM BaCl2, 1 mM MgCl2, 10 mM HEPES, 40 mM TEACl, 10 mM glucose, 87.5 mM CsCl (pH 7.2) and 108 mM CsMS, 4 mM MgCl2, 9 mM EGTA, 9 mM HEPES (pH 7.2). Currents were typically elicited from a holding potential of −80 mV to +10 mV using Clampex software (Axon Instruments). Typically, currents were first elicited with low frequency stimulation (0.03 Hz) and allowed to stabilize prior to application of the compounds. The compounds were then applied during the low frequency pulse trains for two to three minutes to assess tonic block, and subsequently the pulse frequency was increased to 0.2 Hz to assess frequency dependent block. Data were analyzed using Clampfit (Axon Instruments) and SigmaPlot 4.0 (Jandel Scientific).
(§3) Tables 2 and 3 show the results of similar experiments conducted with P/Q-type and L-type channels expressed in HEK 293 cells.

In test [2] the test system is L-type channels (α1C+α2δ+β1b cDNA subunits). The description is as above. Conditions: in general. Here is the method:
as §1, §2, §3

Test [3] has as its target T2, N-type calcium channels (α1B+α2δ+β1b cDNA subunits) (Rattus norvegicus, UniProt Q02294).
T2 construct: expressed in transfected cells
Nature of the test: Whole cell patch clamp, tonic and frequency dependent block, N-type channels in HEK 293 (Example 5). Conditions: for % Block (100 nM) 0.03 Hz: 0.03 Hz (tonic block); for % Block (100 nM) 0.2 Hz: 0.2 Hz (frequency dependent block). Here is the method:
as §1, §2
(Patch clamp records ionic current or voltage across a cell membrane.)

For test [4], the system named is P/Q-type channels (α1A+α2δ+β1b cDNA subunits). Kind of test: Whole cell patch clamp, tonic and frequency dependent block, P/Q-type channels in HEK 293 (Example 5). Conditions: in general. Here is the method: as §1, §2, §3
Test [5] addresses P/Q-type channels (α1A+α2δ+β1b cDNA subunits) (UniProt P54282). Described as above. Here is the method: as §1, §2, §3
The target in test [6] is T3, rat α1B+α2b+β1b channels (N-type channels) (Rattus norvegicus, UniProt Q02294).
T3 construct: expressed in transfected cells
Nature of the test: Whole cell patch recordings, N-type calcium channel block (Examples 1 and 4). Conditions: block of N-type calcium channels, HEK cells, 5 mM barium as charge carrier. The method, then:
Antagonist activity was measured using whole cell patch recordings on human embryonic kidney cells either stably or transiently expressing rat α1B+α2b+β1b channels (N-type channels) with 5 mM barium as a charge carrier.
For transient expression, host cells, such as human embryonic kidney cells, HEK 293 (ATCC# CRL 1573) were grown in standard DMEM medium supplemented with 2 mM glutamine and 10% fetal bovine serum. HEK 293 cells were transfected by a standard calcium-phosphate-DNA coprecipitation method using the rat α1B+β1b+α2δ N-type calcium channel subunits in a vertebrate expression vector (for example, see Current Protocols in Molecular Biologyl ).
After an incubation period of from 24 to 72 hrs the culture medium was removed and replaced with external recording solution (see below). Whole cell patch clamp experiments were performed using an Axopatch 200B amplifier (Axon Instruments, Burlingame, Calif.) linked to an IBM compatible personal computer equipped with pCLAMP software. Borosilicate glass patch pipettes (Sutter Instrument Co., Novato, Calif.) were polished (Microforge, Narishige, Japan) to a resistance of about 4 MΩ when filled with cesium methanesulfonate internal solution (composition in MM: 109 CsCH3SO4, 4 MgCl2, 9 EGTA, 9 HEPES, pH 7.2). Cells were bathed in 5 mM Ba^++ (in mM: 5 BaCl2, 1 MgCl2, 10 HEPES, 40 tetraethylammonium chloride, 10 glucose, 87.5 CsCl pH 7.2). Current data shown were elicited by a train of 100 ms test pulses at 0.066 Hz from −100 mV and/or −80 mV to various potentials (min. −20 mV, max. +30 mV). Drugs were perfused directly into the vicinity of the cells using a microperfusion system.
Normalized dose-response curves were fit (Sigmaplot 4.0, SPSS Inc., Chicago, Ill.) by the Hill equation to determine IC50 values. Steady-state inactivation curves were plotted as the normalized test pulse amplitude following 5 s inactivating prepulses at +10 mV increments. Inactivation curves were fit (Sigmaplot 4.0) with the Boltzman equation, Ipeak (normalized)=1/(1+exp((V−Vh)z/25.6)), where V and Vh are the conditioning and half inactivation potentials, respectively, and z is the slope factor.

Setting [7] is: Table 4 summary, 0.2 Hz, L-type, unit not given in Table 4 (μM in Table 3), read-out: L (IC50 values).
The mark [8] stands for this setting: α1C (L-type), 0.03 Hz, read-out: Estimated IC50 (μM) 0.03 Hz.
The mark [9] stands for this setting: α1C (L-type), 0.2 Hz, read-out: Estimated IC50 (μM) 0.2 Hz.
Setting [10] is: Table 4 summary, 0.2 Hz, N-type, unit not given in Table 4 (μM in Table 1), read-out: N (IC50 values).
[11] abbreviates: α1B (N-type), 0.03 Hz, read-out: Estimated IC50 (μM) 0.03 Hz.
Where [12] appears, read: α1B (N-type), 0.2 Hz, read-out: Estimated IC50 (μM) 0.2 Hz.
The mark [13] stands for this setting: Table 4 summary, 0.2 Hz, P/Q-type, unit not given in Table 4 (μM in Table 2), read-out: P/Q (IC50 values).
Setting [14] is: α1A (P/Q-type), 0.03 Hz, read-out: Estimated IC50 (μM) 0.03 Hz.
[15] abbreviates: α1A (P/Q-type), 0.2 Hz, read-out: Estimated IC50 (μM) 0.2 Hz.

T3 sequence (Q02294 whole entry): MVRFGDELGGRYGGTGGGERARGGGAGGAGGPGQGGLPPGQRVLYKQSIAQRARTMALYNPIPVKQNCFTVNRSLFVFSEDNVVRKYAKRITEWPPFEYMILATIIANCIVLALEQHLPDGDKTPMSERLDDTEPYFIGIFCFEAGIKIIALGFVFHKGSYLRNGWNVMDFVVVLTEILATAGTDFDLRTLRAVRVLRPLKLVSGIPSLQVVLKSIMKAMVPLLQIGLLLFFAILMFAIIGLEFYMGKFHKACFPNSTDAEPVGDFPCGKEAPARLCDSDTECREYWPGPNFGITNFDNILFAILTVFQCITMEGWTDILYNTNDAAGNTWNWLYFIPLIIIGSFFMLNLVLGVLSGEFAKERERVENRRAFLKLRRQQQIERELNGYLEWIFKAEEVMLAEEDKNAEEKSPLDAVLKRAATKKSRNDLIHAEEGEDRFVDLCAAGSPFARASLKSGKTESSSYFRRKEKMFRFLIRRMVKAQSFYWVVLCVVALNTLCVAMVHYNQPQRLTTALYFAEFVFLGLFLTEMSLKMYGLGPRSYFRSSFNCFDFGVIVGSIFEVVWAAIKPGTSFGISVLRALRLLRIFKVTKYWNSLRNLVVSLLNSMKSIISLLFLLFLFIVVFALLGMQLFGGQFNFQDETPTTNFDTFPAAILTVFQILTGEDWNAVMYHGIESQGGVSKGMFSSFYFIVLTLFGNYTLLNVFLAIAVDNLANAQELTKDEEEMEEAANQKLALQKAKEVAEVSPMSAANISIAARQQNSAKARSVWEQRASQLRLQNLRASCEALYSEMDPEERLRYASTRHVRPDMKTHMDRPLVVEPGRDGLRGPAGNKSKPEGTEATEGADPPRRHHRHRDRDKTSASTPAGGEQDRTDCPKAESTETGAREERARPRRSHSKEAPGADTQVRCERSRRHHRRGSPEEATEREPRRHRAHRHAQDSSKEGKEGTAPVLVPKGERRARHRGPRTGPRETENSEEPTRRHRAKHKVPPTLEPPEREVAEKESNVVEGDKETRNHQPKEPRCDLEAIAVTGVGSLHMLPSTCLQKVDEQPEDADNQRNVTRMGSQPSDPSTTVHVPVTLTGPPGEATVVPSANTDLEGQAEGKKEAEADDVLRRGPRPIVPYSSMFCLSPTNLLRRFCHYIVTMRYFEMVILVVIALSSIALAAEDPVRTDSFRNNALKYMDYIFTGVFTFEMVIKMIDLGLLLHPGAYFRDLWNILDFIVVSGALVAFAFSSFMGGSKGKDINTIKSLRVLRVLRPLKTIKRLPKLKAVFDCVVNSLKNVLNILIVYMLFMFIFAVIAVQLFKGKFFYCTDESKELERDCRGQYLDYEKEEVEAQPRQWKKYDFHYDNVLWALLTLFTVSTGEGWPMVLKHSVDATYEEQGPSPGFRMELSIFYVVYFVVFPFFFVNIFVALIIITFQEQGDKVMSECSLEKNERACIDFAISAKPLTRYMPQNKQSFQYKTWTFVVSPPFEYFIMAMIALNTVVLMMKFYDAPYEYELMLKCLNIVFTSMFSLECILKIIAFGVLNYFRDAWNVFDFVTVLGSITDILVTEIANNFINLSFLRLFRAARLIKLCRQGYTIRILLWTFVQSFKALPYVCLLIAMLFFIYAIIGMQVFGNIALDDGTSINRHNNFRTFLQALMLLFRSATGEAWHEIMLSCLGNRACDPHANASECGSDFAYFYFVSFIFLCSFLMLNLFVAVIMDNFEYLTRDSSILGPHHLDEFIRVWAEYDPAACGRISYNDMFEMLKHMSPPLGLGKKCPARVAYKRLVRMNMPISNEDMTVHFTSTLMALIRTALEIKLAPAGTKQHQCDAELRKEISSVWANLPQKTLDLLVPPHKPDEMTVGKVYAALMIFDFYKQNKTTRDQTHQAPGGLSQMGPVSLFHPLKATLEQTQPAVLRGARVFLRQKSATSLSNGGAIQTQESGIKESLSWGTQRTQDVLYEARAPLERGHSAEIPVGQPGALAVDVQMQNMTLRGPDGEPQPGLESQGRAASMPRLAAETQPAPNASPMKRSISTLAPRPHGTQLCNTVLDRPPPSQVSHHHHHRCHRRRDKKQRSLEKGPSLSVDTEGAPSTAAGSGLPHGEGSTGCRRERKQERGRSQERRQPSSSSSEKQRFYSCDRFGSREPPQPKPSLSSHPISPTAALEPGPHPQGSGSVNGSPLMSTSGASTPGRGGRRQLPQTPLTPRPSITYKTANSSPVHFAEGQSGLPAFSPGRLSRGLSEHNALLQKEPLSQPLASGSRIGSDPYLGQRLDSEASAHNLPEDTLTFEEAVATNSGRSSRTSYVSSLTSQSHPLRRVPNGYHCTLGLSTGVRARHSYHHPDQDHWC
T3 sequence (P54290 25-944 partner limits assumed): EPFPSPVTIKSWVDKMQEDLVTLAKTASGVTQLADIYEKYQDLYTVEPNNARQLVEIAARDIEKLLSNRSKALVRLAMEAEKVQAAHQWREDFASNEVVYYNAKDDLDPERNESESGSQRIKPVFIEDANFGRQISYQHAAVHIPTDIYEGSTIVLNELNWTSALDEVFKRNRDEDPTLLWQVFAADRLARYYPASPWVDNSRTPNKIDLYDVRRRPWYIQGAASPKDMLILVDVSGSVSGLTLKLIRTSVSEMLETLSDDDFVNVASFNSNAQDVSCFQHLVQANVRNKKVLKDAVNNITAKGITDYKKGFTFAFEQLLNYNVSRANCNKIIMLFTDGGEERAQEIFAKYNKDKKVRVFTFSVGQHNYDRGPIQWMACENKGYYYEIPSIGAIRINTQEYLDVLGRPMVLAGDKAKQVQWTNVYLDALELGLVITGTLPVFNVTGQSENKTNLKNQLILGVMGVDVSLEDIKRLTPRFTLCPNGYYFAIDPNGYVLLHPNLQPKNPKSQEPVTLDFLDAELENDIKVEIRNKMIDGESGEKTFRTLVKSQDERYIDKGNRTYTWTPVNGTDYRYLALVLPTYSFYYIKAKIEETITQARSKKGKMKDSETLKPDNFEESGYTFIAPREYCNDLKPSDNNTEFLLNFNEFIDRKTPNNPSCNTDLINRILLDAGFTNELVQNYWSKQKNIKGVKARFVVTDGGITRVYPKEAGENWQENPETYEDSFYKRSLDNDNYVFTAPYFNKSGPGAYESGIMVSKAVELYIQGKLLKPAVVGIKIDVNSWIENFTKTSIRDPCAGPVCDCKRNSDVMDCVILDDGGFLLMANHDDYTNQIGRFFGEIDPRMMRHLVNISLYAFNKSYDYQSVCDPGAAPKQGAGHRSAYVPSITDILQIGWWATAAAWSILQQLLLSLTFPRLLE
T3 sequence (P54290 945-1091 partner limits assumed): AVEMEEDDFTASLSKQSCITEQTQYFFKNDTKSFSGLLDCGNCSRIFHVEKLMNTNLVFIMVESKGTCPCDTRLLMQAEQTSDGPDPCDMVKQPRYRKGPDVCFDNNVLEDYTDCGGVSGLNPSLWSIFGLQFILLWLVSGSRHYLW
T3 sequence (P54283 whole entry partner): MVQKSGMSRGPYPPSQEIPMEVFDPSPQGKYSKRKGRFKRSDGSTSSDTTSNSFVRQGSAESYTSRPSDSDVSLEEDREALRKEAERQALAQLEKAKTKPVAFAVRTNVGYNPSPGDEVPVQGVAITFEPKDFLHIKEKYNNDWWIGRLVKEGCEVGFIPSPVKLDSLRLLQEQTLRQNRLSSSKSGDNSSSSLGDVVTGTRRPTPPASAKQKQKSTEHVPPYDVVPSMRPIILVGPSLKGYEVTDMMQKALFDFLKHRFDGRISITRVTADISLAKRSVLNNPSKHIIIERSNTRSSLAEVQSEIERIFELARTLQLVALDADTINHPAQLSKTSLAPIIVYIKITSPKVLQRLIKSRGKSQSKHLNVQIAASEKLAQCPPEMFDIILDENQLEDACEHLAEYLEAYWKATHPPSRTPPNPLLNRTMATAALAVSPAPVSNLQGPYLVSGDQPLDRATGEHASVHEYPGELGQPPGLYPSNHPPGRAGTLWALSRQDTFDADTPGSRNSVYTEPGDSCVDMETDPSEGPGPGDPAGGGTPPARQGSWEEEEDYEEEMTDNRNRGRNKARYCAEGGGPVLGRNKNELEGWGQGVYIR
T2 sequence (Q02294 whole entry): as the sequence (Q02294 whole entry) above
T2 sequence (P54290 25-944 partner limits assumed): as the sequence (P54290 25-944 partner limits assumed) above
T2 sequence (P54290 945-1091 partner limits assumed): as the sequence (P54290 945-1091 partner limits assumed) above
T2 sequence (P54283 whole entry partner): as the sequence (P54283 whole entry partner) above

With `O=C(CC(c1ccccc1)c1ccccc1)N1CCN(C(c2ccccc2)c2ccccc2)CC1` [39-1-B4], the IC50 was 0.3 µM in test [1] (setting [7]); 0.5 µM in test [1] (setting [8]); 0.3 µM in test [1] (setting [9]); 0.04 µM in test [3] (setting [10]); 0.2 µM in test [3] (setting [11]); 0.04 µM in test [3] (setting [12]). Moreover, the IC50 in test [5] (setting [13]) is 0.12 µM; in test [5] (setting [14]), 0.65 µM; in test [5] (setting [15]), 0.12 µM. For the same compound, the “% Block (100 nM) 0.03 Hz” value in test [1] (α1C (L-type), 0.03 Hz) came to 19%; in test [3] (α1B (N-type)) it was 34%; in test [5] (α1A (P/Q-type), 0.03 Hz) it was 31%. Further, the “% Block (100 nM) 0.2 Hz” value in test [1] (α1C (L-type), 0.2 Hz) is 29%; in test [3] (α1B (N-type)) it was 72%; in test [5] (α1A (P/Q-type), 0.2 Hz), 52%. The “IC50 values on L-type channels compared with N-type (in words)” value in test [2] is on record as “higher than those exhibited with respect to N-type channels”. The “N-type channel inhibition at higher frequencies (in words)” value in test [3] (0.2 Hz) is on record as “most potent inhibitors at higher frequencies”. For the same compound, the “IC50 values on P/Q-type channels compared with N-type (in words)” value in test [4] was “higher than those exhibited with respect to N-type channels”.

As to `COc1cc(CN2CCN(CCCCCC(c3ccc(F)cc3)c3ccc(F)cc3)CC2)cc(OC)c1OC` [39-45-3], the IC50 was 0.37 µM in test [1] (setting [7]); 0.74 µM in test [1] (setting [8]); 0.37 µM in test [1] (setting [9]); 0.03 µM in test [3] (setting [10]); 0.1 µM in test [3] (setting [11]); 0.03 µM in test [3] (setting [12]). The results for the IC50 in test [5] (setting [13]), in test [5] (setting [14]) and in test [5] (setting [15]) were 0.09 µM, 0.41 µM and 0.09 µM, respectively. For the same compound, the “% Block (100 nM) 0.03 Hz” value in test [1] (α1C (L-type), 0.03 Hz) was found to be 15%; in test [3] (α1B (N-type)), 50%; in test [5] (α1A (P/Q-type), 0.03 Hz) it was 27%. Besides, the “% Block (100 nM) 0.2 Hz” value is given as 26% in test [1] (α1C (L-type), 0.2 Hz); 79% in test [3] (α1B (N-type)); 58% in test [5] (α1A (P/Q-type), 0.2 Hz). The “IC50 values on L-type channels compared with N-type (in words)” value in test [2] is recorded as “higher than those exhibited with respect to N-type channels”. Besides, the “N-type channel inhibition at higher frequencies (in words)” value in test [3] (0.2 Hz) is given as “most potent inhibitors at higher frequencies”. Moreover, the “IC50 values on P/Q-type channels compared with N-type (in words)” value in test [4] is “higher than those exhibited with respect to N-type channels”.

For `CC(=O)Nc1ccc(/C=C/C(=O)N2CCN(C(=O)CCCCC(c3ccccc3)c3ccccc3)CC2)cc1` [SH-136], the IC50 was 1.4 µM in test [1] (setting [7]); 2.8 µM in test [1] (setting [8]); 1.4 µM in test [1] (setting [9]); 0.14 µM in test [3] (setting [10]); 0.63 µM in test [3] (setting [11]); 0.14 µM in test [3] (setting [12]). For the same compound, the IC50 was 0.15 µM in test [5] (setting [13]), 0.52 µM in test [5] (setting [14]) and 0.15 µM in test [5] (setting [15]). Besides, the “% Block (100 nM) 0.03 Hz” value in test [1] (α1C (L-type), 0.03 Hz) worked out at 4%; in test [3] (α1B (N-type)), 14%; in test [5] (α1A (P/Q-type), 0.03 Hz), 18%. The “% Block (100 nM) 0.2 Hz” value in test [1] (α1C (L-type), 0.2 Hz) came to 8%; in test [3] (α1B (N-type)), 44%; in test [5] (α1A (P/Q-type), 0.2 Hz) it was 42%.

With `O=C(CCCCC(c1ccccc1)C1CCCCC1)N1CCN(CC=Cc2ccccc2)CC1` (stereo not drawn) [Φ, Cy; CH(CH2)4CO; N; 1; CH═CHΦ], in test [6], the IC50 turned out to be 3900 nM.

As for `c1ccc(CCN2CCN(CCCCCC(c3ccccc3)C3CCCCC3)CC2)cc1` (stereo not drawn) [Φ, Cy; CH(CH2)5; N; 2; Φ], in test [6], the IC50 was 3100 nM.

On to `O=C(CCCCCC(c1ccccc1)C1CCCCC1)N1CCN(C(c2ccccc2)c2ccccc2)CC1` (stereo not drawn) [Φ, Cy; CH(CH2)5CO; N; 0; CHΦ2], for which, in test [6], the IC50 was determined as 10200 nM.

Regarding `c1ccc(C(CN2CCN(CC(c3ccccc3)C3CCCCC3)CC2)c2ccccc2)cc1` (stereo not drawn) [Φ, Cy; CHCH2; N; 1; CHΦ2], the IC50 in test [6] was determined as 20000 nM.

Regarding `c1ccc(C(CN2CCN(CC3CCCCC3)CC2)C2CCCCC2)cc1` (stereo not drawn) [Φ, Cy; CHCH2; N; 1; Cy], the IC50 in test [6] came to 20200 nM.

In the case of `c1ccc(CN2CCN(CC(c3ccccc3)C3CCCCC3)CC2)cc1` (stereo not drawn) [Φ, Cy; CHCH2; N; 1; Φ], in test [6], the IC50 is about 5000 nM.

Turning to `O=C(C(c1ccccc1)C1CCCCC1)N1CCN(CC(c2ccccc2)c2ccccc2)CC1` (stereo not drawn) [Φ, Cy; CHCO; N; 1; CHΦ2], the IC50 in test [6] came out at 35000 nM.

As to `O=C(C(c1ccccc1)C1CCCCC1)N1CCN(CC=Cc2ccccc2)CC1` (stereo not drawn) [Φ, Cy; CHCO; N; 1; CH═CHΦ], the IC50 in test [6] came to 5900 nM.

As to `O=C(C(c1ccccc1)C1CCCCC1)N1CCN(Cc2ccccc2)CC1` (stereo not drawn) [Φ, Cy; CHCO; N; 1; Φ], in test [6], the IC50 was found to be 14200 nM.

As to `c1ccc(C(CCN2CCC(NCC3CCCCC3)CC2)c2ccccc2)cc1` [Φ, Φ; CH(CH2)2; CHNH; 1; Cy], the IC50 in test [6] is 2000 to 3000 nM.

Consider `c1ccc(CNC2CCN(CCC(c3ccccc3)c3ccccc3)CC2)cc1` [Φ, Φ; CH(CH2)2; CHNH; 1; Φ], for which, in test [6], the IC50 was determined as 2000 nM.

On to `O=C(CCCCC(c1ccccc1)c1ccccc1)N1CCC(NCC2CCCCC2)CC1` [Φ, Φ; CH(CH2)4CO; CHNH; 1; Cy], for which, in test [6], the IC50 worked out at 750 nM.

With `c1ccc(C(CN2CCC(NCC3CCCCC3)CC2)c2ccccc2)cc1` [Φ, Φ; CHCH2; CHNH; 1; Cy], the IC50 in test [6] is 3000 to 4000 nM.

For the compound `c1ccc(CNC2CCN(CC(c3ccccc3)c3ccccc3)CC2)cc1` [Φ, Φ; CHCH2; CHNH; 1; Φ], the IC50 in test [6] was about 3000 nM.

Regarding `C(CCN1CCN(CC2CCCCC2)CC1)=C(c1ccccc1)c1ccccc1` [Φ, Φ; C═CH(CH2)2; N; 1; Cy], in test [6], the IC50 is 5200 nM.
